Structures are written as SMILES.

In experiment [1] the test system is N27 rat dopaminergic cells overexpressing a truncated human αSynuclein-GFP fusion protein. Nature of the experiment: Inhibition of RSL3-induced αSynuclein aggregation in N27 cells. Format: cell-based. Conditions: 60 nM RSL3, 70 nM compound, 24 hr; for inhibition of RSL3-induced αSynuclein aggregation: vs RSL3 only (Dunnett's test). How it is done: N27 rat dopaminergic cells (purchased from EMD Millipore, SCC048) were transformed to stably overexpress truncated α-Synuclein fused with green fluorescent protein (GFP) with a plasmid construct obtained from Origene (RG221446). Cells were maintained in selection media which consisted of RPMI 1640 media supplemented with 10% (v/v) fetal bovine serum (Millipore, ES-009-B), 1% (v/v) Pencillin-Streptomycin (Gibco, 15140-122), 1% (v/v) L-Glutamine (Gibco, 25030-081) and 500 μg/mL of G418 (Gibco, 10131-027).
N27 rat dopaminergic cells overexpressing a truncated (112 amino acid) human αSynuclein-GFP fusion protein, as described above, were maintained in normal culture conditions as described above. The day before the experiment, cells were plated in 96 well optical bottom, black walled plates at 3,000 cells/well, and maintained at 37° C. for 24 hr. The experiment was initiated by co-treating cells with (1S,3R)-methyl 2-(2-chloroacetyl)-1-(4-(methoxycarbonyl)phenyl)-2,3,4,9-tetrahydro-1H-pyrido[3,4-b]indole-3-carboxylate (1S,3R-RSL3, described by Yang et al., Cell 156:317-331 (2014)) (60 nM) and 70 nM compounds (2,3,5-trimethyl-6-nonylcyclohexa-2,5-diene-1,4-dione (C9), 2,3,5-trimethyl-6-octylcyclohexa-2,5-diene-1,4-dione (C8), or 2,3,5-trimethyl-6-heptylcyclohexa-2,5-diene-1,4-dione (C7)) using a D300e compound printer (Tecan), and placed back in the incubator at 37° C. for 24 hr. Cells were fixed with 4% paraformaldehyde for 15 minutes at room temperature, washed 3 times with Dulbecco's phosphate-buffered saline (DPBS) buffer, and then incubated at room temperature for 48 hr with 1% Triton-X 100 solution (in DPBS) to enable selective labeling of aggregated αSynuclein. Cells were then washed and standard immunocytochemistry (ICC) methods were employed to label total αSynuclein (mouse anti-αSynuclein, 1:250, BD Biosciences). Cells were incubated with primary antibody overnight at 4° C. and then washed with DPBS 3 times the following day. Cells were then incubated at room temperature with a fluorescently conjugated secondary antibody (goat anti-mouse Alexa 647, Invitrogen) for 2 hr at room temperature. 10 nM Hoechst was also added to label nuclei, and cells were imaged on a high-content imaging platform (ThermoFisher, HSC Cellomics Arrayscan) to quantify total aggregated αSynuclein (see FIG. 3A).
Statistical analysis of samples was performed via ordinary one-way ANOVA analysis with Dunnett's multiple comparisons test, comparing RSL3 only-treated vs. RSL3 plus compound-treated cells.

In experiment [2] the test system is PD patient fibroblasts (ND29542). Nature of the experiment: Rescue of PD patient fibroblasts from BSO plus iron-induced oxidative stress. Format: cell-based, human. Conditions: BSO (125 μM) plus iron (125 μM); for Max Rescue (@ 500 nM): 500 nM compound, unit assumed; for EC50: Homo sapiens, Fibroblast, concentration at which 50% maximal rescue of cell viability was observed. The procedure: An initial screen was performed to identify the effectiveness of compounds for the amelioration of PD and AD. Test samples and solvent controls were tested for their ability to rescue PD and AD fibroblasts stressed by addition of L-buthionine-(S,R)-sulfoximine (BSO, a specific inhibitor of GSH synthetase) plus iron (e.g. iron citrate), in a similar manner as that described in Jauslin et al., Hum. Mol. Genet. 11(24):3055 (2002), Jauslin et al., FASEB J. 17:1972-4 (2003), and International Patent Application WO 2004/003565. This specific BSO-mediated cell death was prevented or ameliorated by administration of compounds described herein.
The AD experiments were performed as follows. PD experiments were performed in a similar manner; certain specific conditions are noted below in Table 1A.
MEM (a medium enriched in amino acids and vitamins) and Medium 199 (M199) with Earle's Balanced Salts (EBS), without phenol red, were purchased from Invitrogen. Fetal Calf Serum was obtained from Corning. Basic fibroblast growth factor (bFGF) and epidermal growth factor (EGF) were purchased from PeproTech. Penicillin-streptomycin-glutamine mix, L-buthionine (S,R)-sulfoximine, iron citrate, and insulin from bovine pancreas were purchased from Sigma. Calcein AM was purchased from Anaspec. Cell Culture Medium was prepared by combining 450 mL MEM, 50 mL Fetal Calf Serum, 100 U/mL penicillin, and 100 microgram/mL streptomycin. Assay medium was prepared by combining 125 mL M199, 50 mL Fetal Calf Serum, 100 U/mL penicillin, 100 microgram/mL streptomycin, 2 mM glutamine, 10 microgram/mL insulin, 10 ng/mL EGF, and 10 ng/mL bFGF; MEM was added to make the volume up to 500 mL. 10 mM BSO and 10 mM iron citrate solutions were prepared in water with subsequent filter-sterilization and stored at −20° C.
The test samples were supplied in 1.5 mL glass vials or polypropylene vials. The compounds were diluted with DMSO, to result in a 1 mM stock solution. Once dissolved, they were stored at −20° C.
A culture of AD or PD patient-derived fibroblasts was started from a vial with approximately 500,000 cells stored in liquid nitrogen. Cells were propagated in Cell Culture Medium, with subcultivation every third day by trypsinization at a ratio of 1:3. Once confluent, fibroblasts were harvested by trypsinization, resuspended in Assay Medium, and seeded at a final cell density of 2,500 cells/0.1 mL per well of a standard 96-well tissue culture plate. […]
100 microliters of Calcein AM (1 microM) in PBS+Ca+Mg was then added to each well. […] After that time fluorescence (excitation/emission wavelengths of 485 nm and 525 nm, respectively) was read on a Spectramax fluorescence reader. Data were analyzed using standard four-parameter curve fit algorithms (XLFit or Prism) to determine the EC50 concentration for each compound.

With `CCCCCCCCC1=C(C)C(=O)C(C)=C(C)C1=O` [Compound C8, 2,3,5-trimethyl-6-octylcyclohexa-2,5-diene-1,4-dione, reference compound], the “inhibition of RSL3-induced αSynuclein aggregation” value in experiment [1] is recorded as “significant inhibition”. Also, in experiment [2], the Max Rescue (@ 500 nM) came out at 73% and the EC50 was greater than 500 nM.
For the compound `CCCCCCCCCC1=C(C)C(=O)C(C)=C(C)C1=O` [Compound C9, 2,3,5-trimethyl-6-nonylcyclohexa-2,5-diene-1,4-dione], in experiment [1], the “level of aggregation inhibition over C8” value is “approximately 5.45 fold” and the “inhibition of RSL3-induced αSynuclein aggregation” value is on record as “significant inhibition”. Also, in experiment [2], the Max Rescue (@ 500 nM) was 103% and the EC50 came out at 84 nM.

The term EC50 denotes the concentration that produces a half-maximal response.
